In US20250170090A1, “METHOD FOR PREVENTING OR TREATING DISEASE OR DISORDER ASSOCIATED WITH ANTINEOPLASTIC AGENT” (ONQUALITY PHARMACEUTICALS CHINA LTD., priority 2022, published 2025):
Like-named read-outs stand apart in the source and are kept apart here.

Tests used:
[1] = system: human intestinal epithelial cells (FHs 74 Int); test: CCK-8 cell viability: alleviation of proliferative toxicity of anti-tumor agents on FHs 74 Int (Table 8-4); format: cell-based; conditions: NO-NSAID 100 μM
Procedure: (§1) Experiments were conducted using various epithelial cells: Examples 47-51 used human immortalized keratinocytes (HaCaT) with corresponding results in Table 8-1; Examples 52-56 used human oral keratinocytes (HOK) with results in Table 8-2; Examples 57-61 used gastric epithelial cells (GES-1) with results in Table 8-3; Examples 62-66 used human intestinal epithelial cells (FHs 74 Int) with results in Table 8-4.
(§2) The cultured cells were digested the suspended, counted, and seed into a 96-well plate with 5,000-10,000 cells per well. The wells are divided into the following groups: blank control group, anti-tumor agent group, anti-tumor agent+NO-NSAID group, anti-tumor agent solvent group, NO-NSAID solvent control group. Wherein each well of each group contained a basic medium, and the final liquid volume contained in each well was about 100 μL. The grouping situation was as follows: • 1) Blank control group: no solution was added except normally replacing the medium; • 2) Anti-tumor agent group: added the anti-tumor agent solution (the final concentration was shown in Table 8-1 to Table 8-4, the solvent of the anti-tumor agent solution was DMSO); • 3) Anti-tumor agent+NO-NSAID group: added the anti-tumor agent solution and the NO-NSAID solution (the final concentrations of anti-tumor agent and NO-NSAID were shown in Table 8-1 to Table 8-4, and according to the solubility of NO-NSAID, the solvent of NO-NSAID solution was selected as ethanol or sterile water, and minor volume differences in each group were adjusted by added the corresponding solvent); • 4) Anti-tumor agent solvent group: an equal volume of DMSO as contained in the corresponding anti-tumor agent solution in Group 2) was added; • 5) NO-NSAID control group: the same volume and type of solvent (for example, ethanol or sterile water) corresponding to the NO-NSAID contained in group 3) was added.
(§3) The anti-tumor agent solvent group was not involved in data processing and was only used as a reference for evaluating experimental system error. The NO-NSAID solvent control group was used for data correction to eliminate the influence of the solvent on the results.
(§4) After culturing for 24-48 hours, the Cell Counting Kit-8 (CCK-8) detection kit (C0037, Shanghai Beyotime Biotechnology Co., Ltd., Beyotime Biotechnology) was used to determine the cell viability. This allows for the calculation of the proliferative toxicity of anti-tumor agent on cell and the mitigating effect of NO-NSAID on proliferative toxicity. The results were statistically analyzed and plotted using GraphPad Prism 6.0 software and t test.

[2] = system: hand-foot syndrome induced by anti-tumor agents; test: Prevention of hand-foot syndrome induced by anti-tumor agents in rats, NO-NSAID ointment on hind paws (Table 2-2); format: in vivo, SD rats; conditions: Rattus norvegicus, topical, read-out: Control rate; for responders at 1 %: ointment 1% wt; for responders at 5 %: ointment 5% wt; for responders at 3 %: ointment 3% wt
In short: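 Female SD rats (8 weeks, ~200 g; 10/group) received anti-tumour agents by daily oral gavage in Cremophor EL:ethanol 1:1 diluted ~3× with PBS. NO-NSAID or blank ointment was applied to hind paws once daily, 4 h restrained, then wiped off. Control rate = blank-group minus treated-group hand-foot syndrome incidence.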

[3] = system: human immortalized keratinocytes (HaCaT); test: CCK-8 cell viability: alleviation of proliferative toxicity of anti-tumor agents on HaCaT (Table 8-1); format: cell-based; conditions: NO-NSAID 100 μM, percentage increase in viable cells vs anti-tumor agent alone
Procedure: as §1, §2, §3, §4

[4] = system: gastric epithelial cells (GES-1); test: CCK-8 cell viability: alleviation of proliferative toxicity of anti-tumor agents on GES-1 (Table 8-3); format: cell-based, human; conditions: NO-NSAID 100 μM
Procedure: as §1, §2, §3, §4

[5] = system: hand-foot syndrome caused by anti-tumor agents; test: Treatment of established hand-foot syndrome caused by anti-tumor agents in rats (Table 4); format: in vivo
Procedure: After the rats (about 200 g) were fed and adapted for one week, the rats were divided into groups of 10 rats for gavage administration experiment. The anti-tumor agent was dissolved in a mixed solution of Cremophor EL:ethanol=1:1, and diluted with PBS to the required concentration (diluted about 3 times with PBS solution) before gavage. […] Specific experimental procedures followed those outlined in the prevention experiment. […] Table 4 lists the animal experiments using various anti-tumor agents and NO-NSAID ointment, as well as the corresponding experimental results (where the value in the control rate column=the incidence rate of hand-foot syndrome in the blank group−the incidence rate of hand-foot syndrome in the treatment group).

[6] = 120 h, Sorafenib 80 mg/kg once a day, Days 5
[7] = 432 h, Cabozantinib 50 mg/kg once a day, Days 18
[8] = 432 h, Lenvatinib 100 mg/kg twice a day, Days 18
[9] = 432 h, Nintedanib 110 mg/kg once a day, Days 18
[10] = 432 h, Regorafenib 90 mg/kg once a day, Days 18

## CC(=O)Oc1ccccc1C(=O)Oc1cccc(CO[N+](=O)[O-])c1 [Compound A2]
[1]; Afatinib (10 μM)
  Response rate % (average): 22%
[1]; Cabozantinib (5 μM)
  Response rate % (average): 26%
[1]; Dabrafenib (10 μM)
  Response rate % (average): 13%
[1]; Everolimus (5 μM)
  Response rate % (average): 27%
[1]; Infigratinib (15 μM)
  Response rate % (average): 20%
[1]; Lapatinib (5 μM)
  Response rate % (average): 20%
[1]; Lenvatinib (10 μM)
  Response rate % (average): 26%
[1]; Olmutinib (10 μM)
  Response rate % (average): 25%
[1]; Regorafenib (5 μM)
  Response rate % (average): 21%
[1]; Selumetinib (5 μM)
  Response rate % (average): 27%
[1]; Sorafenib (5 μM)
  Response rate % (average): 26%
[1]; Sunitinib (5 μM)
  Response rate % (average): 36%
[2]; [6]
  responders at 1 %: 50%
  responders at 5 %: 66.7%
[2]; 120 h, Sorafenib 80 mg/kg once a day, ointment 2% wt, Days 5
  responders at 2 %: 50%
[2]; 120 h, Sorafenib 80 mg/kg once a day, ointment 10% wt, Days 5
  responders at 10 %: 80%
[2]; 360 h, Apatinib 105 mg/kg once a day, Days 15
  responders at 3 %: 50%
[2]; 360 h, Encorafenib 80 mg/kg once a day, Days 15
  responders at 3 %: 42.9%
[2]; 360 h, Lapatinib 120 mg/kg twice a day, Days 15
  responders at 3 %: 33.3%
[2]; 360 h, Sunitinib 120 mg/kg once a day, Days 15
  responders at 3 %: 42.9%
[2]; 384 h, Fruquintinib 40 mg/kg once a day, Days 16
  responders at 3 %: 71.4%
[2]; 432 h, Anlotinib 20 mg/kg once a day, Days 18
  responders at 3 %: 66.7%
[2]; 432 h, Axitinib 50 mg/kg once a day, Days 18
  responders at 3 %: 40%
[2]; [7]
  responders at 1 %: 28.6%
  responders at 5 %: 66.7%
[2]; 432 h, Cabozantinib 50 mg/kg once a day, ointment 2.50% wt, Days 18
  responders at 2.5 %: 42.9%
[2]; [8]
  responders at 1 %: 42.9%
  responders at 3 %: 42.9%
  responders at 5 %: 71.4%
[2]; [9]
  responders at 1 %: 33.3%
  responders at 3 %: 50%
  responders at 5 %: 66.7%
[2]; [10]
  responders at 1 %: 57.1%
  responders at 5 %: 66.7%
[2]; 480 h, Erdafitinib 45 mg/kg once a day, Days 20
  responders at 3 %: 71.4%
[2]; 480 h, Olmutinib 100 mg/kg once a day, Days 20
  responders at 3 %: 60%
[3]; Afatinib (10 μM)
  Response rate % (average): 20%
[3]; Cabozantinib (5 μM)
  Response rate % (average): 36%
[3]; Dabrafenib (10 μM)
  Response rate % (average): 21%
[3]; Everolimus (5 μM)
  Response rate % (average): 7%
[3]; Infigratinib (15 μM)
  Response rate % (average): 16%
[3]; Lapatinib (5 μM)
  Response rate % (average): 18%
[3]; Lenvatinib (10 μM)
  Response rate % (average): 1%
[3]; Olmutinib (10 μM)
  Response rate % (average): 34%
[3]; Regorafenib (5 μM)
  Response rate % (average): 26%
[3]; Selumetinib (5 μM)
  Response rate % (average): 18%
[3]; Sorafenib (5 μM)
  Response rate % (average): 33%
[3]; Sunitinib (5 μM)
  Response rate % (average): 31%
[4]; Afatinib (10 μM)
  Response rate % (average): 3%
[4]; Cabozantinib (5 μM)
  Response rate % (average): 27%
[4]; Dabrafenib (10 μM)
  Response rate % (average): 25%
[4]; Everolimus (5 μM)
  Response rate % (average): 31%
[4]; Infigratinib (15 μM)
  Response rate % (average): 39%
[4]; Lapatinib (5 μM)
  Response rate % (average): 16%
[4]; Lenvatinib (10 μM)
  Response rate % (average): 23%
[4]; Olmutinib (10 μM)
  Response rate % (average): 30%
[4]; Regorafenib (5 μM)
  Response rate % (average): 18%
[4]; Selumetinib (5 μM)
  Response rate % (average): 17%
[4]; Sorafenib (5 μM)
  Response rate % (average): 24%
[4]; Sunitinib (5 μM)
  Response rate % (average): 18%
[5]; Apatinib 105 mg/kg once every two days, ointment 3% wt, Days 7
  Response rate: 33.33%
[5]; Cabozantinib 50 mg/kg once every two days, ointment 1% wt, Days 13
  Response rate: 14.29%
[5]; Erdafitinib 45 mg/kg once every two days, ointment 3% wt, Days 13
  Response rate: 28.57%
[5]; Fruquintinib 40 mg/kg once every two days, ointment 3% wt, Days 8
  Response rate: 50.00%
[5]; Lenvatinib 65 mg/kg once a day, ointment 3% wt, Days 9
  Response rate: 33.33%
[5]; Regorafenib 90 mg/kg once every two days, ointment 1% wt, Days 7
  Response rate: 33.33%
[5]; Sorafenib 80 mg/kg once every two days, ointment 2.00% wt, Days 5
  Response rate: 20.00%
[5]; Sunitinib 120 mg/kg once every two days, ointment 3% wt, Days 7
  Response rate: 33.33%
